Data reported in publication PMC6017115, “Inhibitory Effect of Sauchinone on UDP-Glucuronosyltransferase (UGT) 2B7 Activity” (Molecules : A Journal of Synthetic Chemistry and Natural …, 2018).
pIC50: −log10 of the molar value.

Biological target: T1, UGT2B7 (Homo sapiens, UniProt P16662)
T1 sequence (P16662 24-529): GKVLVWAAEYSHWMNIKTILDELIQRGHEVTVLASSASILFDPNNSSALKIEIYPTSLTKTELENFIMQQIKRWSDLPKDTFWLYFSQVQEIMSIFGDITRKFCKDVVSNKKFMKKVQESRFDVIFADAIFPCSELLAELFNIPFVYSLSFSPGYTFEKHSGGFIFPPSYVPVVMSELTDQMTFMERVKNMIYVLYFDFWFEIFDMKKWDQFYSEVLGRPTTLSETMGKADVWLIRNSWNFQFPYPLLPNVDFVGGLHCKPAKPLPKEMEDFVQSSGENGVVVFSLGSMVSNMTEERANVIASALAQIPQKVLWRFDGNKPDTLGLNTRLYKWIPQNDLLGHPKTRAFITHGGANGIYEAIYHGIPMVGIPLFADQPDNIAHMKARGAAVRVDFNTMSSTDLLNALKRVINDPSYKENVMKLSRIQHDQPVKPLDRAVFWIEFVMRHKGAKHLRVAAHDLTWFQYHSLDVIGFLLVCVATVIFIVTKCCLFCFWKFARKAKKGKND
Test: Inhibition of UGT2B7 (zidovudine glucuronidation) in human liver microsomes
Type: in vitro ADME
Set-up: tissue Corning Life Sciences 452156; host or cells: pooled human liver microsomes
Procedure: Their IC50 values were compared to that of sauchinone. […] UGT-mediated activities in the presence of sauchinone as an inhibitor were expressed as percentages of corresponding control values (in absence of sauchinone). From percentages of control activity versus inhibitor concentrations, a sigmoid shaped curve was fitted to the data and IC50 as an enzyme inhibition parameter was calculated by fitting the Hill equation to the data using GraphPad Prism 5 (GraphPad Software Inc., San Diego, CA, USA).

pIC50: 4.12
Structure (SMILES): O=C1Nc2ccc(Cl)cc2[C@@](C#CC2CC2)(C(F)(F)F)O1 [Efavirenz]
